Test results reported in EP0526502B1, “PHENOLIC AMINE DEPIGMENTING AND ANTIMELANOMA AGENTS” (The Governors of the University of Alberta, priority 1990, dated 1991).
“And” between values parts separate entries of the source, which are not always exact repeats. Equal values may be shown once.

How the values were obtained:
[1] = system: B16 melanoma; experiment: In vivo growth inhibition of s.c. inoculated B16 melanoma; parameters: species or system C57BL/6J mice; details: day 12 or 13
Description: The in vivo antimelanoma effect of the compounds were evaluated by percent growth inhibition of inoculated tumour (%g.i.). The percent g.i. was computed from the mean tumour volume at day 12 or 13 of the experiments; i.e., 100 x (1- treated group/control group). […] To further examine whether a minimal dose of N-Ac-4-S-CAP, 200 mg/Kg has an antimelanoma effect, three groups of mice were treated with N-Ac-4-S-CAP. […] One of the advantages of N-Ac-4-S-CAP over 4-S-CAP was that it had much higher LD⁵⁰ (as high as 1400 mg/Kg of body weight, and therefore a greater range of safety).

[2] = target: T1, plasma MAO (Bos taurus, UniProt Q29437); experiment: Enzyme kinetics with monoamineoxidase (substrate disappearance by HPLC, Lineweaver-Burk); format: biochemical; details: result in words
T1 construct: purchased Sigma Chemical Co. (St. Louis, MO, USA)
T1 sequence (Q29437 17-762): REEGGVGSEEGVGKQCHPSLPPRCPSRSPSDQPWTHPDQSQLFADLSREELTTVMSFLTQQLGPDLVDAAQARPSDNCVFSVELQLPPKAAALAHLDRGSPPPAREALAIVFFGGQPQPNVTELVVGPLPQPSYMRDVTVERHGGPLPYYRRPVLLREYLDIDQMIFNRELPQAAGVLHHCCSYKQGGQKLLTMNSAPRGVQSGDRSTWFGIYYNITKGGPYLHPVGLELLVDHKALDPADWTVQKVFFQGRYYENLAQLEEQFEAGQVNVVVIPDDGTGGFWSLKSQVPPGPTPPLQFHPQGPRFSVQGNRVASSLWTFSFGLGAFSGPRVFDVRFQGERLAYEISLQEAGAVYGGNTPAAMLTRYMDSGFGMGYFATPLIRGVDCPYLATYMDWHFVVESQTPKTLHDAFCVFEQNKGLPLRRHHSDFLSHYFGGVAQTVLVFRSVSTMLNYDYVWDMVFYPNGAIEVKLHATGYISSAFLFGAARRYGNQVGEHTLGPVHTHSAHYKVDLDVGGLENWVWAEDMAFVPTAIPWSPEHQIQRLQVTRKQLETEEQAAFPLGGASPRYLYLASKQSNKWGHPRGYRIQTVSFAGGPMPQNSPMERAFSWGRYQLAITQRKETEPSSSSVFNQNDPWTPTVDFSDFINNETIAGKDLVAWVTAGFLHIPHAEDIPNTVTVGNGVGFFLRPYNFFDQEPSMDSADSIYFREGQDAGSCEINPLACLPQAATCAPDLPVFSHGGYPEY
Description: (§1) Mushroom tyrosinase (400 units/mg) and plasma MAO (1000 units/gm) were obtained from Sigma Chemical Co. (St. Louis, MO, USA). A reaction mixture consisted of a substrate of 7 to 8 different concentrations (40 to 500 »M for mushroom tyrosinase and 20 to 200 »M for MAO) and of either mushroom tyrosinase (2.5 »g) or MAO (10 »g) in 1.0 mL of 0.05 M sodium phosphate buffer, pH 6.8 and 7.4 respectively. The reactions were carried out at 37°C in a shaking water bath, and stopped by taking 100 »L of the reaction mixture and adding it to 900 »L of 0.4 M HCLO₄. The disappearance of substrate was followed using HPLC (high pressure liquid chromatography) Km and Vmax values were calculated from the Lineweaver-Burk plots.

[3] = target: Mushroom tyrosinase (Agaricus bisporus, UniProt C7FF04); experiment: Enzyme kinetics with tyrosinase (substrate disappearance by HPLC, Lineweaver-Burk); format: biochemical; details: result in words
Description: as §1

[4] = system: B16F10 melanoma; experiment: Melanoma-colony formation in the lungs; format: in vivo, mice; details: 900 mg/kg i.p. daily for 14 days from day five; lungs excised day 26
Description: Murine B16F10 melanoma cell line with a strong metastatic property to form tumour colonies in the lungs was obtained from Dr. Longenecker, Department of Immunology, University of Alberta. Such cell line is well recognized and readily available as reported in Miura et al, supra. The cells were grown in T-75 flasks in dulbecco's MEM available from Gipco Lab Inc., Grand Island, New York, supplemented with 10% fetal calf serum, also obtained from Gipco, penicillin (100 »/ml) and streptomycin (100 »g/ml). The cells were incubated at 37°C in humidified atmosphere of 5% CO₂ in air. The cells were harvested by applying a thin layer of 0.25% trypsin solution in EDTA, washed and resuspended in cold N saline solution. Viable cells were identified by trypan blue dye exclusion and counted. The cell suspension was diluted to the desired concentration. Three groups of mice were studied using a control 4-S-CAP and N-Ac-4-S-CAP as the active agents in the treatment. On day zero, the mice were inoculated via the lateral tail vein with 5 x 10⁴ cells in 0.2 ml of N saline. The test drugs were dissolved in normal saline, sterilized by membrane filtration, and administered in a dose of 300 mg/Kg (4-S-CAP) or 900 mg/Kg (N-Ac-4-S-CAP); starting on day five, the control solution or drug was injected i.p. daily for 14 days. On day 26, the mice were killed by cervical dislocation, their lungs were removed, and the number of melanoma colonies was counted under a dissecting microscope. The results were expressed as percentage reduction in the number of colonies: [a - b/a] x 100, where a = colonies in control group and b = colonies in experimental group.

[5] = Experiment I, 200 mg/Kg i.p. daily for nine days
[6] = Experiment I, 400 mg/Kg i.p. daily for nine days
[7] = Experiment I, 600 mg/Kg i.p. daily for nine days
[8] = Experiment I, 800 mg/Kg i.p. daily for nine days
[9] = Experiment II, 400 mg/Kg i.p. daily for nine days
[10] = Experiment II, 800 mg/Kg i.p. daily for nine days
[11] = Experiment II, 1200 mg/Kg i.p. daily for nine days

Chain of Mushroom tyrosinase (C7FF04 1-392): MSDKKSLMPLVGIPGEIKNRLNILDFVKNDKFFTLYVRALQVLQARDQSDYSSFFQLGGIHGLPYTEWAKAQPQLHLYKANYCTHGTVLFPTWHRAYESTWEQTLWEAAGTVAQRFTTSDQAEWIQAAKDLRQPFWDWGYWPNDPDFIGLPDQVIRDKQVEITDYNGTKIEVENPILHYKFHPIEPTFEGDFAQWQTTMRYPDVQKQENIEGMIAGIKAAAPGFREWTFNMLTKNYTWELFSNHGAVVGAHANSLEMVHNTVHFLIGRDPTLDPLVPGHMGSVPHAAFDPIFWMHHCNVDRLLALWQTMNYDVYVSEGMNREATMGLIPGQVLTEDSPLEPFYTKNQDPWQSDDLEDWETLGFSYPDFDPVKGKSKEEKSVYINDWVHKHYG

SMILES: CC(=O)NCCSc1ccc(O)cc1 [N-Ac-4-S-CAP, N-ACETYL-4-S-CYSTEAMINYLPHENOL]
- %Gi [1, 5]: 39.8%
- Tumour Volume [1, 5]: 313 ± 83 mm^3
- %Gi [1, 6]: 57.3%
- Tumour Volume [1, 6]: 222 ± 13 mm^3
- %Gi [1, 7]: 63.18%
- Tumour Volume [1, 7]: 192 ± 48 mm^3
- %Gi [1, 8]: 74.4%
- Tumour Volume [1, 8]: 133 ± 11 mm^3
- %Gi ([1]; Experiment II, 200 mg/Kg i.p. daily for nine days): 32.0%
- %Gi [1, 9]: 34.0%
- Tumour Volume [1, 9]: 359 ± 52 mm^3
- %Gi [1, 10]: 63.4%
- Tumour Volume [1, 10]: 199 ± 26 mm^3
- %Gi [1, 11]: 70.7%
- Tumour Volume [1, 11]: 159 ± 23 mm^3
- substrate for plasma MAO [2]: not, however, a substrate for plasma MAO
- tyrosinase substrate [3]: is also a tyrosinase substrate
- No. of Colonies % control [4]: 25% and 24.9%
- No. of Colonies per pair of lungs [4]: 21.5 ± 10.8
